Common to all, as to assay: NCI anticancer screen, dose series, 48 h
Test [1] relates to EKVX.
Test [2] has as its system HOP-62.
Test [3] concerns HT-29.
Test [4] concerns Hs-578T.
The subject of test [5] is K562.
Test [6] relates to MCF7.
For test [7], the system named is Malme-3M.
Test [8] deals with NCI-H522.
The subject of test [9] is OVCAR-3.
Test [10] has as its system OVCAR-4.
For test [11], the system named is OVCAR-5.
Test [12] relates to OVCAR-8.
Test [13] concerns SK-MEL-5.
For test [14], the system named is T47D.
The subject of test [15] is TK-10.
The test system of test [16] is UACC-62.
The subject of test [17] is UO-31.
Test [18] deals with HL-60.
The subject of test [19] is SNB-75.

Structures can show the parent of a compound that is named as a salt.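 Briefly, cells in 96-well plates were exposed to five compound concentrations for 48 h, and endpoints were estimated by linear interpolation. At the GI50, growth is halved.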 Active and inactive are the calls of the source. Rule as the data show it: active = GI50 up to about 1.1 µM and inactive = higher.

In the case of `Nc1nc(O)c2c(n1)NCN(CCCN1CCOCC1)C2`, the GI50 in [1], in [2], in test [3], in test [4], in test [5] and in [6] was > 100 µM (inactive) in each case. The GI50 in test [7] is > 100 µM (inactive); in test [8], > 100 µM (inactive); in test [9] it was 55.3 µM (inactive); in test [10] it was > 100 µM (inactive); in test [11], > 100 µM (inactive); in [12], > 100 µM (inactive). For the same compound, the GI50 in test [13], in test [14], in test [15], in [16] and in test [17] was > 100 µM (inactive) in each case.

Turning to `COc1ccc(-n2sc3ncc(C)cc3c2=O)cc1`, the GI50 in [1] is 18.3 µM (inactive); in test [2], 18.2 µM (inactive); in [3] it was 17.4 µM (inactive); in [4] it was 30.6 µM (inactive); in [5], 39 µM (inactive); in test [6] it was 23.7 µM (inactive). Further, the GI50 in [7] was 18.5 µM (inactive); in test [8], 20.6 µM (inactive); in test [9] it was 16.9 µM (inactive); in test [10], 33.4 µM (inactive); in [11] it was 20.1 µM (inactive); in test [12], 18.2 µM (inactive). Moreover, the GI50 was 13.2 µM (inactive) in [13]; 17.5 µM (inactive) in test [14]; 19.1 µM (inactive) in [15]; 17.5 µM (inactive) in test [16]; 17.6 µM (inactive) in test [17].

Regarding `Cc1ccccc1Nc1nc(NNC(=O)Cc2ccccc2)nc(NNC(=O)c2ccncc2)n1`, the GI50 in test [1], in test [18], in test [2], in [3], in [4] and in [5] was > 10 µM (inactive) each time. Also, the GI50 in [6], in test [7], in [10], in test [12], in test [19] and in test [14] was > 10 µM (inactive) throughout. Further, the GI50 in test [15], in test [16] and in [17] was > 10 µM (inactive) throughout.

As to `CSc1cc(Cl)c(C)cc1S(=O)(=O)NC(=O)NNc1ccc(C)cc1`, the GI50 in test [1], in [2], in [3], in [4], in [5] and in [6] was > 100 µM (inactive) throughout. The GI50 in test [7], in test [8], in test [9], in test [10], in test [11] and in test [12] was > 100 µM (inactive) in each case. Moreover, the results for the GI50 in test [13], in [19] and in [14] were > 100 µM (inactive), 8.26 µM (inactive) and 61.9 µM (inactive), respectively.

Turning to `CC(C)(C)OC(=O)NC(Cc1ccc(OC(C)(C)C)cc1)C(=O)N[C@H]1CC[C@H](C(=O)O)C1` (some centres not stated), the GI50 in test [1], in test [18], in [2], in test [3], in test [4] and in [5] was > 100 µM (inactive) in each case. The GI50 in test [6], in test [8], in [11], in [12], in test [13] and in test [19] was > 100 µM (inactive) each time. Also, the results for the GI50 in [14] and in [15] were > 10 µM (inactive) and > 100 µM (inactive), respectively.

Take `Cc1cn(C2CC(O)C(CO[Si](C)(C)C(C)(C)C)OC2OC(C)C)c(=O)[nH]c1=O` (configuration not stated): the GI50 in test [1] was 42.5 µM (inactive); in [3], 20 µM (inactive); in test [4] it was 67.3 µM (inactive); in test [5], 49.3 µM (inactive); in [6], 22.4 µM (inactive); in test [7], 44.5 µM (inactive). The GI50 in test [8] is 30.2 µM (inactive); in test [9], 20.6 µM (inactive); in [10] it was 44.5 µM (inactive); in test [11], > 100 µM (inactive); in [12] it was 33.5 µM (inactive); in test [13], 32.7 µM (inactive). The GI50 was > 100 µM (inactive) in test [19]; 72.3 µM (inactive) in test [14]; 39.5 µM (inactive) in [15]; > 100 µM (inactive) in test [16]; 44.8 µM (inactive) in test [17].

On to `Clc1ccc(Nc2nn3c(CCCCCCCCc4nnc5sc(Nc6ccc(Cl)cc6)nn45)nnc3s2)cc1`, for which the GI50 in test [1] was > 100 µM (inactive); in [2], 38.3 µM (inactive); in test [3] it was 49.3 µM (inactive); in test [4], > 100 µM (inactive); in [5], 50.5 µM (inactive); in test [6] it was > 100 µM (inactive). Further, the GI50 in [7], in test [8], in test [9], in [10], in test [11] and in test [12] was > 100 µM (inactive) each time. The GI50 was > 100 µM (inactive) in test [13]; 23.3 µM (inactive) in test [19]; > 100 µM (inactive) in [14]; 29.4 µM (inactive) in test [15]; > 100 µM (inactive) in test [16]; > 100 µM (inactive) in test [17].

In the case of `COc1ccccc1C(=O)OCC1CCCN2CCCCC12` (configuration not stated), the GI50 was 81.7 µM (inactive) in test [1]; 21.1 µM (inactive) in [18]; 16.6 µM (inactive) in test [3]; 59.7 µM (inactive) in test [4]; 33.9 µM (inactive) in [5]; 42.4 µM (inactive) in test [6]. In addition, the GI50 in [7] is 33.6 µM (inactive); in test [10], 83 µM (inactive); in test [12] it was 21 µM (inactive); in test [13], 34.4 µM (inactive); in test [19], 20.6 µM (inactive); in [14], 16.1 µM (inactive). In addition, the GI50 is > 100 µM (inactive) in test [15], 31.7 µM (inactive) in test [16] and > 100 µM (inactive) in test [17].

Take `C=C1C[C@@H]2O[C@H]3[C@H]4[C@@H](C[C@@H](C)[C@@H](OC(C)=O)[C@H]42)[C@@H](C)CO[C@@]3(C)[C@H](OC(=O)CCCCCCC)CC1=O`: the GI50 is 15.5 µM (inactive) in test [1]; 16 µM (inactive) in test [2]; 20.9 µM (inactive) in test [3]; 17.1 µM (inactive) in test [4]; > 10 µM (inactive) in [5]; 18.5 µM (inactive) in test [6]. Also, the GI50 in [8] is 19.6 µM (inactive); in [9] it was 18.2 µM (inactive); in test [11], 7.29 µM (inactive); in test [12], 13.6 µM (inactive); in test [13] it was 15 µM (inactive); in test [19] it was 12.1 µM (inactive). In addition, the GI50 in test [14] was 15.4 µM (inactive); in [15], 17.1 µM (inactive); in [16], 16.5 µM (inactive); in test [17], 15.6 µM (inactive).

Take `COc1ccc2c(c1)C1=NCCN(CCN(C)C)c3ccc([N+](=O)[O-])c(c31)N2`: the GI50 in test [1] was 0.736 µM (active); in test [18], 0.427 µM (active); in test [2] it was 1.21 µM (inactive); in [3], 0.348 µM (active); in test [4], 1.75 µM (inactive); in test [5], 0.364 µM (active). For the same compound, the GI50 in test [6] is 0.365 µM (active); in test [7], 0.431 µM (active); in [9], 0.499 µM (active); in test [10], 0.191 µM (active); in test [11], 1.59 µM (inactive); in [12] it was 0.526 µM (active). Further, the GI50 in test [13] was 0.845 µM (active); in test [19], 0.173 µM (active); in [14], 0.156 µM (active); in test [15], 1.1 µM (active); in test [16], 0.535 µM (active); in test [17], 0.735 µM (active).

On to `CC(C)C(C/C=C1/CC(CO)(COC(=O)C2CCCCC2)OC1=O)C(C)C` (configuration not stated), for which the GI50 in [1] is 20 µM (inactive); in [2] it was 11.7 µM (inactive); in [3], 27.9 µM (inactive); in [4], 16.7 µM (inactive); in test [5], 6.79 µM (inactive); in test [6], 18.7 µM (inactive). Besides, the GI50 in test [7] is 17.3 µM (inactive); in test [8], 17.3 µM (inactive); in test [9], 18.5 µM (inactive); in test [10] it was 19.8 µM (inactive); in [11] it was 18.7 µM (inactive); in test [12], 17.7 µM (inactive). The GI50 in test [13] was 18.3 µM (inactive); in test [19], 13.8 µM (inactive); in test [14], 21.3 µM (inactive); in test [15], 16.8 µM (inactive); in [16] it was 89.9 µM (inactive); in [17], 17.7 µM (inactive).

With `CN1[C@@H]2C[C@@H](OC(=O)[C@H](CO)c3ccccc3)C[C@H]1[C@@H]1O[C@@H]12` [SCOPOLAMINE HYDROBROMIDE], the GI50 in test [1], in test [2], in [3], in test [4], in [5] and in test [6] was > 100 µM (inactive) throughout. Also, the GI50 in test [7], in test [8], in test [9], in test [10], in [11] and in [12] was > 100 µM (inactive) throughout. Further, the GI50 in test [13], in test [14], in [15], in [16] and in [17] was > 100 µM (inactive) in each case.

The values above are taken from ChEMBL document CHEMBL1201862, “PubChem BioAssay data set” (2004).
